PubChem BioAssay (NCI)
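Each compound was tested at five concentrations against cells in 96-well plates for 48 hours. Here, GI50 denotes the concentration required for 50% inhibition of growth. TGI denotes the concentration required for complete inhibition of growth.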

Columns and labels:
Experiment in all cases: DTP human tumour cell line panel, 48 h
[1] = system: IGROV1 ovarian
[2] = system: MCF7 breast
[3] = system: SN12C renal
[4] = system: MOLT-4 leukemia
[5] = system: UACC-62 melanoma
[6] = system: 786-0 renal
[7] = system: MDA-MB-231 breast
[8] = system: SF-539 CNS
[9] = system: SW-620 colon
[10] = system: EKVX NSCLC

Cc1cc(NCCCNc2ccnc3cc(Cl)ccc23)nc(N2CCN(C)CC2)n1
GI50 [1]: 8.14 µM
TGI [1]: 39.9 µM
GI50 [2]: 2.77 µM
TGI [2]: 28.4 µM
GI50 [3]: 4.76 µM
TGI [3]: 33.9 µM
GI50 [4]: 2.46 µM
TGI [4]: 15.8 µM
GI50 [5]: 2.05 µM
TGI [5]: 4.55 µM
GI50 [6]: 14.7 µM
TGI [6]: 38.3 µM
GI50 [7]: 2.07 µM
TGI [7]: 15.8 µM
GI50 [8]: 1.84 µM
TGI [8]: 3.6 µM
GI50 [9]: 2.62 µM
TGI [9]: 17.5 µM

N#Cc1cccc(OCc2nc(N)nc(N)c2-c2ccc(Cl)c(Cl)c2)c1
GI50 [1]: 1.46 µM
TGI [1]: > 100 µM
GI50 [2]: 3.09 µM
TGI [2]: > 100 µM
GI50 [3]: 2.23 µM
TGI [3]: > 100 µM
GI50 [4]: 2.83 µM
TGI [4]: > 100 µM
GI50 [5]: 0.442 µM
TGI [5]: > 100 µM
GI50 [6]: 0.513 µM
TGI [6]: > 100 µM
GI50 [7]: 6.13 µM
TGI [7]: > 100 µM
GI50 [8]: 1.43 µM
TGI [8]: 65.4 µM
GI50 [9]: 0.484 µM
TGI [9]: > 100 µM

Nc1cc(C(=O)O)[nH]c(=O)n1
TGI [1]: > 100 µM
TGI [2]: > 100 µM
TGI [3]: > 100 µM
TGI [4]: > 100 µM
TGI [5]: > 100 µM
TGI [10]: > 100 µM
TGI [6]: > 100 µM
TGI [7]: > 100 µM
TGI [9]: > 100 µM

Cc1cc2cc3cc(C)c(N(C)C)cc3[n+](C)c2cc1N(C)C
GI50 [1]: 5.04 µM
TGI [1]: > 100 µM
GI50 [2]: 2.38 µM
TGI [2]: > 100 µM
GI50 [3]: 3.91 µM
TGI [3]: > 100 µM
GI50 [4]: 3.58 µM
TGI [4]: > 100 µM
GI50 [5]: 4.91 µM
TGI [5]: 23.6 µM
GI50 [6]: 5.1 µM
TGI [6]: 18.8 µM
GI50 [7]: 3.17 µM
TGI [7]: 9 µM
GI50 [8]: 3.05 µM
TGI [8]: 12.1 µM
GI50 [9]: 2.92 µM
TGI [9]: 18 µM

CN(C)CCN(C)CC1COC(C)(C)O1 (stereo not given)
TGI [1]: > 100 µM
TGI [3]: > 100 µM
TGI [4]: > 100 µM
TGI [5]: > 100 µM
TGI [10]: > 100 µM
TGI [6]: > 100 µM
TGI [8]: > 100 µM
TGI [9]: > 100 µM

CC/C(=C(/c1ccc(OCCN(C)C)cc1)c1ccc(OC(=O)CCC(=O)c2c(C)[nH]c(/C=C3\N=C(c4ccc[nH]4)C=C3OC)c2C)cc1)c1ccccc1
GI50 [1]: 3.65 µM
TGI [1]: 15.4 µM
GI50 [2]: < 0.0217 µM
TGI [2]: 2.66 µM
GI50 [3]: 3.09 µM
TGI [3]: 18.9 µM
GI50 [4]: 0.974 µM
TGI [4]: 4.25 µM
GI50 [5]: 1.81 µM
TGI [5]: 3.78 µM
GI50 [6]: 2.19 µM
TGI [6]: 5.73 µM
GI50 [7]: 0.441 µM
TGI [7]: 2.38 µM
GI50 [8]: 2.59 µM
TGI [8]: 9.26 µM
GI50 [9]: 0.76 µM
TGI [9]: 2.57 µM

COC(c1cccc(C(O)(C(F)(F)F)C(F)(F)F)c1)(C(F)(F)F)C(F)(F)F
TGI [1]: 35.3 µM
TGI [3]: 32.2 µM
TGI [4]: 40.5 µM
TGI [5]: 28.2 µM
TGI [10]: 33.3 µM
TGI [6]: 31.8 µM
TGI [8]: 33.3 µM
TGI [9]: 32.9 µM

N#Cc1ncc(-c2ccc(C(F)(F)F)cc2)c(NCc2cc(C(F)(F)F)cc(C(F)(F)F)c2)n1
GI50 [1]: 5.95 µM
TGI [1]: > 100 µM
GI50 [2]: 2.74 µM
TGI [2]: > 100 µM
GI50 [3]: 3.54 µM
TGI [3]: > 100 µM
GI50 [4]: 3.17 µM
TGI [4]: 9.79 µM
GI50 [5]: 3.93 µM
TGI [5]: > 100 µM
GI50 [6]: 6.39 µM
TGI [6]: 96.3 µM
GI50 [7]: 3.17 µM
TGI [7]: 12.6 µM
GI50 [8]: 8.5 µM
TGI [8]: > 100 µM
GI50 [9]: 3.13 µM
TGI [9]: > 100 µM
